Experimental data from patent publication US10537611B2, “Methods of treating lung cancer” (Five Prime Therapeutics, Inc., priority 2011, dated 2020).

How the values were obtained:
[1] = test system: lung cancer cell lines without FGFR1 gene amplification; experiment: CellTiter-Glo cell number, non-amplified lung cancer cell lines (average); assay type: cell-based, human; conditions: averaged across all FBS concentrations, vs control ECD-Fc
Protocol: To determine the impact of FGFR1-ECD.339-Fc on lung cancer cell lines in tissue culture, cells were plated in a Microtest™ 96-well tissue culture plate (Becton Dickenson, Franklin Lakes, N.J.) at a density of 5×10^3 cells/well in medium containing 10%, 1% or 0.1% FBS in the presence or absence of 15 μg/ml FGFR1-ECD.339-Fc (SEQ ID NO: 6) or an unrelated ECD-Fc fusion protein (as a negative control). Plates were incubated at 37° C. at 5% CO2 for 4 days and then assayed to determine the impact of FGFR1-ECD.339-Fc on cell number and proliferation.
To determine cell number the CellTiter-Glo® Luminescent Cell Viability Assay (Promega, Madison, Wis.) was employed. CellTiter-Glo® is a homogeneous method of determining the number of viable cells in culture based on quantitation of the ATP present, an indicator of metabolically active cells. In brief, CellTiter-Glo® Reagent was added to each well of the tissue culture plate at a volume equal to the volume of cell culture medium present in each well (100 μl), the contents mixed for 2 minutes on an orbital shaker to induce cell lysis and then the plate incubated for 10 minutes at room temperature. Luminescence was then determined on an EnVision™ Multilabel Plate Reader (PerkinElmer, Boston, Mass.) with a 0.2 second integration time. Results were expressed as relative light units (RLU)/well. […]

[2] = patients with solid tumors (N=39); up to 16 mg/kg/qwk, any dose-level; cited from earlier work
MFE-319 xenograft model = experiment: MFE-319 xenograft tumor growth inhibition; assay type: in vivo, mouse; conditions: Endometrial MFE-319; IP 15 mg/kg BIW; non-amplified; P ns
Protocol: Percentage tumor growth inhibition by FGFR1-ECD.339-Fc was determined by area-under-the-curve (AUC) analysis of xenograft growth curves treated with FGFR1-ECD.339-Fc compared to albumin control. […] The difference in FGFR1-ECD.339-Fc-mediated xenograft inhibition between FGFR1 gene amplified and non-amplified lung cancer xenograft models was statistically significant (P=0.0333).
Also shown in Table 5 are the dosing schedule for FGFR1-ECD.339-Fc in a mouse xenograft model, the percent tumor growth inhibition (TGI (%)) and the statistical significance of the tumor growth inhibition (P Value), as well as whether the FGFR1 gene is amplified in the cell line.
An exemplary xenograft experiment is as follows. For Caki-1 and MSTO-211H, five million cells were implanted subcutaneously over the right flank of SCID mice (N=10 per group). […] Representative tumor growth curves are shown for a renal cancer, Caki-1, (A), and mesothelioma, MSTO-211H, (B) xenograft cancer model. […] In the MSTO-211H mesothelioma model, FGFR1-ECD.339-Fc administration reduced tumor growth (FIG. 16b) by 64% (P<0.0001).

[3] = test system: VEGF-A induced angiogenesis; experiment: Matrigel plug assay, VEGF-A induced angiogenesis; assay type: in vivo, mouse; conditions: C57BL/6 mice; 15 or 45 mg/kg
Protocol: Recombinant human FGF-2 (final concentration 250 ng/ml; Peprotech) and/or recombinant human VEGF-A (final concentration 100 ng/ml; Peprotech) were added to matrigel (BD Biosciences, Franklin Lakes, N.J.) with sodium heparin (2 units/ml; Sigma). FGF-2 and/or VEGF-A containing matrigel plugs (one per animal) were implanted subcutaneously in the abdomen region of C57BL/6 mice (Charles River, Wilmington, Mass.). FGFR1-ECD.339-Fc was administered by tail vein injection on days 1, 4, and 7 post-matrigel implantation. On day 9, plugs were excised and processed for hematoxylin and eosin (H&E) staining. Digital images of the stained matrigel sections were generated using a Retiga 2000R digital camera (QImaging, Burnaby, BC). Image analysis was performed using Image-Pro Plus 5.1 (Media Cybernetics Inc., Silver Spring, Md.). Neovascularization was defined as the cellular response in the Matrigel plugs, consisting of newly formed blood vessels and migrated cells.

## FGFR1-ECD.339-Fc: human FGFR1 extracellular domain ending at amino acid 339 fused to an Fc; SEQ ID NO: 6 (mature form), SEQ ID NO: 5 with signal peptide
[1]
  average decrease in cell number (CellTiterGlo RLU): 9.33%
[2]
  impact on serum phosphate: No impact
MFE-319 xenograft model
  TGI (%): 0%
[3]
  in vivo angiogenesis, matrigel plug with VEGF-A only: completely blocked
